This is an account of results in patent US11207312B2, “Metallo-beta-lactamase inhibitors and methods of use thereof” (priority 2017, dated 2021).

The target of one series is NDM-1 (Klebsiella pneumoniae, UniProt C7C422). As to the kind of experiment: biochemical. Format: biochemical. Particulars: CCF2-FA fluorescence assay, 2 hours at 25° C. Put shortly: (§1)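 Enzyme (NDM-1 1 pM, IMP-1 2 pM, VIM-1 30 pM final) and 1.25 μM CCF2-FA incubated with inhibitor (20 to 0.00063 μM) for 2 h at 25° C in 100 mM KH2PO4 pH 7, 0.005% Tween-20, 10 μM ZnSO4. Fluorescence read at ex 405/em 460 nm; IC50 by 4-parameter fit.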

The target of a further series is IMP-1 (Serratia marcescens, UniProt P52699). As to the kind of experiment: biochemical. Conditions: CCF2-FA fluorescence assay, 2 hours at 25° C.; read-out: IMP1 IC50. An outline of the steps:
as §1

For a further series, the target named is VIM-1 (Pseudomonas aeruginosa (strain ATCC 15692 / DSM 22644 / CIP 104116 / JCM 14847 / LMG 12228 / 1C / PRS 101 / PAO1), UniProt A0A0F7KYQ8). As to the kind of experiment: biochemical. Particulars: CCF2-FA fluorescence assay, 2 hours at 25° C.; read-out: VIM1 IC50. An outline of the steps: as §1
The next series has as its target VIM-2 (Escherichia coli, UniProt Q5U7L7). As to the kind of experiment: biochemical. Particulars: CCF2-FA fluorescence assay; read-out: VIM2 IC50.
Series [1] concerns Escherichia coli expressing NDM-1 (CLB30016). Format: cell-based. Conditions: with imipenem 1 μg/ml; 95% inhibition of bacterial growth. Put shortly: (§2)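 Synergy with imipenem at a fixed 1 μg/ml was scored by absorbance following 22–24 h incubation at 35 °C; the potentiating concentration (MITC95) was the lowest giving 95% growth inhibition.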
In series [2] the test system is Klebsiella pneumoniae expressing VIM-1 (IHMA599644). Format: cell-based. Particulars: with imipenem 1 μg/ml; 95% inhibition of bacterial growth. Put shortly: as §2
Series [3] has as its system Serratia marcescens expressing IMP-1 (CL5741). Format: cell-based. Conditions: with imipenem 1 μg/ml; 95% inhibition of bacterial growth. Put shortly:
as §2

Series [4] relates to P. aeruginosa MB9798 (efflux+, IMP-1 plasmid). Particulars: for MB9798 MITC95 P. aeruginosa uM Efflux WT: efflux + (MB9798) strain, imipenem at 2 μg/mL, in the presence of a class A, C, D serine β-lactamase inhibitor closely related to relebactam; for Efflux ratio: fold difference between efflux+ (MB9798) and efflux− (MB9799) strains. Put shortly:
(§3)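 Isogenic P. aeruginosa PAO1 strains (efflux+ and multiple-efflux-pump-disrupted) carrying plasmid IMP-1, with inducible AmpC, tested by broth microdilution. Imipenem and/or ceftazidime fixed, usually at CLSI breakpoint, plus fixed class A/C β-lactamase inhibitor; titrated MBL inhibitor concentration restoring susceptibility recorded and compared between strains as efflux fold difference.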

The subject of series [5] is P. aeruginosa MB9799 (efflux-, IMP-1 plasmid). Format: cell-based, Pseudomonas aeruginosa. Particulars: efflux − (MB9799) strain; imipenem at 2 μg/mL; in the presence of a class A, C, D serine β-lactamase inhibitor closely related to relebactam. An outline of the steps:
as §3

Sequence of NDM-1 (C7C422 whole entry, looked up, species assumed): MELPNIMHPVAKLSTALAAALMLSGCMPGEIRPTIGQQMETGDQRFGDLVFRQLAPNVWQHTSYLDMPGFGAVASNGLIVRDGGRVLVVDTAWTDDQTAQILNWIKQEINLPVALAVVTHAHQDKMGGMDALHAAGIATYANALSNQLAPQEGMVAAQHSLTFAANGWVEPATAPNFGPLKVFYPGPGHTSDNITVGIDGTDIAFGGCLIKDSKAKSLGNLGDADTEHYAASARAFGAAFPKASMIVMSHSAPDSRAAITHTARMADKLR
Sequence of IMP-1 (P52699 whole entry, looked up, species assumed): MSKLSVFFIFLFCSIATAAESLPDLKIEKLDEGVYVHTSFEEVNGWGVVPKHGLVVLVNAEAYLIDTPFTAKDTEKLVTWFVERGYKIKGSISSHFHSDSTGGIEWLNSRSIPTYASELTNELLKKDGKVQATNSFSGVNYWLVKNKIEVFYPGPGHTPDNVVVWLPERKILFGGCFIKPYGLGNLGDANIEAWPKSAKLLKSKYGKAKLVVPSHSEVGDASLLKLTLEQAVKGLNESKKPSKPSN

As to `CN(C)C1(C)CN(c2ccc(S(=O)(=O)N[C@@H]3CCNC3)c(S(N)(=O)=O)c2-c2nnn[nH]2)C1` [Example 114, 4-[3-(dimethylamino)-3-methylazetidin-1-yl]-N1-[(3R)-pyrrolidin-3-yl]-3-(1H-tetrazol-5-yl)benzene-1,2-disulfonamide], the IC50 – broadly, the point on the concentration scale where inhibition reaches its midpoint – against NDM-1 was determined as 12 nM; at IMP-1, 50.5 nM; on VIM-1 it was 1.24 nM; at VIM-2, 4.27 nM. The “CLB30016 E. coli MITC95 NDM” value in series [1] was found to be 1.56 µM. The “IHMA599644 K. pneumoniae MITC95 VIM” value in series [2] worked out at 3.13 µM. Moreover, the “CL5741 S. marcescens MITC95 IMP” value in series [3] amounted to 3.13 µM. For the same compound, the “MB9798 MITC95 P. aeruginosa uM Efflux WT” value in [4] is 12.50 µM. The Efflux ratio in series [4] was 4.00. Besides, the “MB9799 MITC95 P. aeruginosa uM Efflux Mutant” value in series [5] was found to be 3.13 µM.

Take `NS(=O)(=O)c1c(S(=O)(=O)N[C@@H]2CCNC2)ccc(N2CCCC(=NO)C2=O)c1-c1nn[nH]n1` [Example 152, (R)-4-(3-(hydroxyimino)-2-oxopiperidin-1-yl)-N1-(pyrrolidin-3-yl)-3-(2H-tetrazol-5-yl)benzene-1,2-disulfonamide]: the IC50 on NDM-1 is 0.08 nM; at IMP-1, 6.8 nM; on VIM-1, 0.16 nM; at VIM-2, 0.74 nM. Besides, the “CLB30016 E. coli MITC95 NDM” value in [1] was determined as 0.39 µM. For the same compound, the “IHMA599644 K. pneumoniae MITC95 VIM” value in series [2] is 3.13 µM. In [3], the “CL5741 S. marcescens MITC95 IMP” value stood at 1.56 µM. Besides, the “MB9798 MITC95 P. aeruginosa uM Efflux WT” value in [4] came to 3.13 µM. Besides, the Efflux ratio in series [4] stood at 2.00. In series [5], the “MB9799 MITC95 P. aeruginosa uM Efflux Mutant” value is 1.56 µM.

For `N.NC[C@@H](O)CNS(=O)(=O)c1ccc(N2CCN(CC(=O)O)CC2)c(-c2nnn[nH]2)c1S(N)(=O)=O` [Example 137, ammonium (R)-2-(4-(4-(N-(3-amino-2-hydroxypropyl)sulfamoyl)-3-sulfamoyl-2-(1H-tetrazol-5-yl)phenyl)piperazin-1-yl)acetate], the IC50 amounted to 3.5 nM on NDM-1, 4.97 nM at IMP-1, 16.1 nM at VIM-1 and 15.3 nM at VIM-2. Moreover, the “CLB30016 E. coli MITC95 NDM” value in series [1] came to 0.78 µM. The “IHMA599644 K. pneumoniae MITC95 VIM” value in [2] is 6.25 µM. For the same compound, the “CL5741 S. marcescens MITC95 IMP” value in series [3] worked out at 1.56 µM. Further, the “MB9798 MITC95 P. aeruginosa uM Efflux WT” value in [4] is 6.25 µM. Also, the Efflux ratio in [4] amounted to 2.00. In addition, in [5], the “MB9799 MITC95 P. aeruginosa uM Efflux Mutant” value was 3.13 µM.

As for `NCCOC1CCN(c2ccc(S(=O)(=O)NC[C@H](O)CN)c(S(N)(=O)=O)c2-c2nn[nH]n2)CC1` [Example 209, (R)—N1-(3-amino-2-hydroxypropyl)-4-(4-(2-aminoethoxy)piperidin-1-yl)-3-(2H-tetrazol-5-yl)benzene-1,2-disulfonamide], the IC50 against NDM-1 came out at 0.96 nM; on IMP-1, 1.69 nM; at VIM-1 it was 0.12 nM; on VIM-2, 3.32 nM. Further, the “CLB30016 E. coli MITC95 NDM” value in [1] came to 0.78 µM. For the same compound, the “IHMA599644 K. pneumoniae MITC95 VIM” value in [2] was found to be 1.56 µM. For the same compound, the “CL5741 S. marcescens MITC95 IMP” value in series [3] was 1.56 µM. The “MB9798 MITC95 P. aeruginosa uM Efflux WT” value in series [4] amounted to 0.78 µM. In series [4], the Efflux ratio is listed as 1.00. For the same compound, the “MB9799 MITC95 P. aeruginosa uM Efflux Mutant” value in [5] is 0.78 µM.

For `NS(=O)(=O)c1c(S(=O)(=O)C2CNC2)ccc(N2CCC[C@H](O)C2)c1-c1nnn[nH]1` [Example 60, 6-(azetidin-3-ylsulfonyl)-3-[(3S)-3-hydroxypiperidin-1-yl]-2-(1H-tetrazol-5-yl)benzenesulfonamide], the IC50 at NDM-1 was 4.23 nM; on IMP-1, 6.05 nM; on VIM-1 it was 1.44 nM; on VIM-2, 2.67 nM. Also, the “CLB30016 E. coli MITC95 NDM” value in series [1] was determined as 3.13 µM. Also, in series [2], the “IHMA599644 K. pneumoniae MITC95 VIM” value is 6.25 µM. Further, the “CL5741 S. marcescens MITC95 IMP” value in series [3] was 3.13 µM. For the same compound, the “MB9798 MITC95 P. aeruginosa uM Efflux WT” value in series [4] turned out to be 12.50 µM. The Efflux ratio in [4] stood at 4.00. For the same compound, the “MB9799 MITC95 P. aeruginosa uM Efflux Mutant” value in [5] was determined as 3.13 µM.

In the case of `CN(C)[C@H]1CCN(c2ccc(S(=O)(=O)N[C@@H]3CCNC3)c(S(N)(=O)=O)c2-c2nnn[nH]2)C1` [Example 67, 4-[(3S)-3-(dimethylamino)pyrrolidin-1-yl]-N1-[(3R)-pyrrolidin-3-yl]-3-(1H-tetrazol-5-yl)benzene-1,2-disulfonamide], the IC50 amounted to 85 nM on NDM-1, 60.7 nM on IMP-1, 4.32 nM on VIM-1 and 18.5 nM at VIM-2. Also, the “CLB30016 E. coli MITC95 NDM” value in series [1] stood at 1.56 µM. Moreover, the “IHMA599644 K. pneumoniae MITC95 VIM” value in series [2] came to 1.56 µM. Further, the “CL5741 S. marcescens MITC95 IMP” value in [3] stood at 3.13 µM. The “MB9798 MITC95 P. aeruginosa uM Efflux WT” value in [4] came out at 12.50 µM. Further, the Efflux ratio in series [4] was determined as 8.00. Also, the “MB9799 MITC95 P. aeruginosa uM Efflux Mutant” value in series [5] was found to be 1.56 µM.

In the case of `NC[C@@H](O)CNS(=O)(=O)c1ccc(N2CC[C@H](CN)[C@H](O)C2)c(-c2nn[nH]n2)c1S(N)(=O)=O` [Example 9, N^1—((R)-3-amino-2-hydroxypropyl)-4-(cis-4-(aminomethyl)-3-hydroxypiperidin-1-yl)-3-(2H-tetrazol-5-yl)benzene-1,2-disulfonamide], the IC50 against NDM-1 stood at 3.46 nM; on IMP-1 it was 15.5 nM; at VIM-1 it was 0.26 nM; at VIM-2, 6.41 nM. The “CLB30016 E. coli MITC95 NDM” value in [1] was determined as 0.39 µM. For the same compound, in [2], the “IHMA599644 K. pneumoniae MITC95 VIM” value turned out to be 1.56 µM. In addition, the “CL5741 S. marcescens MITC95 IMP” value in series [3] is 0.78 µM. The “MB9798 MITC95 P. aeruginosa uM Efflux WT” value in [4] came to 1.56 µM. In addition, in series [4], the Efflux ratio was 2.00. Moreover, in series [5], the “MB9799 MITC95 P. aeruginosa uM Efflux Mutant” value worked out at 0.78 µM.

As to `NC[C@@H](O)CNS(=O)(=O)c1ccc(N2CCC(N)CC2)c(-c2nn[nH]n2)c1S(N)(=O)=O` [Example 194, (R)-N1-(3-amino-2-hydroxypropyl)-4-(4-aminopiperidin-1-yl)-3-(2H-tetrazol-5-yl)benzene-1,2-disulfonamide], the half-inhibitory concentration (IC50) came out at 26.5 nM against NDM-1, 16 nM at IMP-1, 0.17 nM at VIM-1 and 14.9 nM on VIM-2. Further, the “CLB30016 E. coli MITC95 NDM” value in series [1] came out at 0.39 µM. Further, the “IHMA599644 K. pneumoniae MITC95 VIM” value in series [2] was determined as 0.78 µM. Besides, the “CL5741 S. marcescens MITC95 IMP” value in [3] was 0.20 µM. Further, in series [4], the “MB9798 MITC95 P. aeruginosa uM Efflux WT” value stood at 0.78 µM. Further, the Efflux ratio in [4] is 1.00. Also, the “MB9799 MITC95 P. aeruginosa uM Efflux Mutant” value in series [5] worked out at 0.78 µM.

Turning to `NS(=O)(=O)c1c(S(=O)(=O)N[C@@H]2CCNC2)ccc(N2CCC(c3c[nH]cn3)CC2)c1-c1nn[nH]n1` [Example 166, (R)-4-(4-(1H-imidazol-4-yl)piperidin-1-yl)-N1-(pyrrolidin-3-yl)-3-(2H-tetrazol-5-yl)benzene-1,2-disulfonamide], the IC50 was found to be 0.12 nM on NDM-1, 0.22 nM at IMP-1, 0.09 nM on VIM-1 and 0.53 nM at VIM-2. The “CLB30016 E. coli MITC95 NDM” value in series [1] stood at 0.78 µM. Moreover, in [2], the “IHMA599644 K. pneumoniae MITC95 VIM” value was 1.56 µM. Moreover, in [3], the “CL5741 S. marcescens MITC95 IMP” value is 0.78 µM. The “MB9798 MITC95 P. aeruginosa uM Efflux WT” value in series [4] stood at 0.78 µM. Further, in [4], the Efflux ratio came out at 1.00. Also, the “MB9799 MITC95 P. aeruginosa uM Efflux Mutant” value in series [5] was 0.78 µM.

Regarding `NC[C@@H](O)CNS(=O)(=O)c1ccc(N2CCC[C@@H](CN)C2)c(-c2nnn[nH]2)c1S(N)(=O)=O` [Example 38, N1-((R)-3-amino-2-hydroxypropyl)-4-((S)-3-(aminomethyl)piperidin-1-yl)-3-(1H-tetrazol-5-yl)benzene-1,2-disulfonamide], the half-maximal inhibitory concentration (IC50) at NDM-1 came out at 6.3 nM; at IMP-1 it was 20.6 nM; on VIM-1, 0.67 nM; on VIM-2, 2.11 nM. Moreover, in series [1], the “CLB30016 E. coli MITC95 NDM” value was determined as 0.20 µM. The “IHMA599644 K. pneumoniae MITC95 VIM” value in series [2] was 0.78 µM. The “CL5741 S. marcescens MITC95 IMP” value in series [3] was determined as 0.78 µM. Further, in [4], the “MB9798 MITC95 P. aeruginosa uM Efflux WT” value amounted to 3.13 µM. Moreover, in [4], the Efflux ratio was 4.00. For the same compound, the “MB9799 MITC95 P. aeruginosa uM Efflux Mutant” value in [5] is 0.78 µM.
